This passage reports EC50 results from ChEMBL document CHEMBL5209590, “Membrane potential based transport assay for SLC7A3 using HEK293 JumpIn SLC7A3 OE cells” (2022).

This test deals with Cationic amino acid transporter 3 (Homo sapiens, UniProt Q8WY07). The test is described as follows: Substrate uptake by the Cationic Amino Acid Transporter (CAT-3, SLC7A3) as assessed by the fluorescent FLIPR membrane potential dye in HEK-293 JumpIN-SLC7A3 cells (PubChem AID: 1745863). It is filed as functional, cell-based, HEK293.
Cationic amino acid transporter 3, sequence (Q8WY07 whole entry): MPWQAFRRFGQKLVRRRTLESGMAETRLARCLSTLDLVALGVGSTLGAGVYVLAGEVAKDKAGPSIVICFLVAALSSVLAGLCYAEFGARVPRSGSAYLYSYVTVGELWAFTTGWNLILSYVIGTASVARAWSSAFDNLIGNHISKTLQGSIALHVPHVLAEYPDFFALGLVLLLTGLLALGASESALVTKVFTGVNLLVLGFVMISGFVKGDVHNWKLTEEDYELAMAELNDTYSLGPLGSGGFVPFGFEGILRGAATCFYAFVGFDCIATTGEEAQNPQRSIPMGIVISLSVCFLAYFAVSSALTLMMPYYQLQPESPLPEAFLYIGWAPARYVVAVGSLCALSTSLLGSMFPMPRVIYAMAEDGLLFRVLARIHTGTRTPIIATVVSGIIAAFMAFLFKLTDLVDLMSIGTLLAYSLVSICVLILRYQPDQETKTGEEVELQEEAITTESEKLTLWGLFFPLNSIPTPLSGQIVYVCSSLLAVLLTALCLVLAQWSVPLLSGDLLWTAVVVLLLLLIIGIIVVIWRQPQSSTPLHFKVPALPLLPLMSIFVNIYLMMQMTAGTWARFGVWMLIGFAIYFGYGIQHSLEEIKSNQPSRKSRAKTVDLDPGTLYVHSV
As to `NCCC[C@H](N)C(=O)O`, it took 237 µM to reach a half-maximal effect (EC50).
Under `N=C(N)NCCC[C@H](N)C(=O)O` [ARGININE] stands 283 µM; under `NCCCC[C@H](N)C(=O)O` [LYSINE], 158 µM.

By EC50 is commonly meant the concentration needed to bring the measured effect to its halfway point. Read a low EC50 as greater potency.
